Patent US20050214938A1, “Cardiac bodies: clusters of spontaneously contracting cells for regenerating cardiac function” (priority 2004, published 2005)

Key:
hES cells of the H7 line = assay: Direct differentiation paradigm without embryoid body stage; assay type: cell-based, human; conditions: 10 μM at day 10-12 or 12-14
Procedure: Cardiomyocyte differentiation was also achieved in a direct differentiation paradigm. Undifferentiated hES cells of the H7 line were dissociated and plated directly onto gelatin-coated plates without going through an embryoid body stage. The plated cells were cultured in differentiation medium (80% KO-DMEM, 1 mM L-glutamine, 0.1 mM p-mercaptoethanol, 1% amino acids, and 20% fetal bovine serum). Contracting cardiomyocytes were found at day 18 in cultures treated with 10 μM 5-aza-deoxy-cytidine at day 10-12 or 12-14, and at later times in all cultures.

[1] = test system: hES cells of the H1 or H9 line
Procedure: hES cells of the H1 or H9 line being cultured as embryoid bodies were treated at differentiation day 1-4,4-6 or 6-8 with 5-aza-deoxy-cytidine, a cytosine analog that affects DNA methylation, thereby activating gene expression. Cells were harvested at day 15, and analyzed for cardiac α-MHC by real-time RT-PCR.
The RT-PCR assay from Example 3 was adapted for the Taqman™ 7700 sequence detection system using the same primers, amplifying for 40 cycles at 95° C. for 15 sec and 60° C. for 1 min. 18S ribosomal RNA was amplified for a control using a kit for Taqman™ ribosomal RNA control reagents (Applied Biosystems). Reactions were analyzed by ABI Prism™ 7700 Sequence Detection system.
Other reagents examined for an ability to induce cardiomyocyte differentiation included dimethyl sulfoxide (DMSO) and all-trans retinoic acid (RA).
Retinoic acid was applied to differentiating hES cultures at doses between 10^−9 and 10^−[…].

[2] = test system: cardiomyogenic cell line from bone marrow stroma; conditions: treated for 24 hours; cited from earlier work
mouse ES cells = conditions: Wobus et al. 1997; cited from earlier work
[3] = test system: hES-derived cardiomyocytes; assay: Pharmacological response: contraction rate of beating areas; assay type: cell-based, human; conditions: for chronotropic effect: FIG. 5 Panels B-E
Procedure: EBs were plated on to gelatin-coated 24-well plates and allowed to differentiate, as in Example 2. Contracting cardiomyocytes at differentiation day 15-21 were used for examining pharmacological response. The frequency of the spontaneous beating was measured by counting the contraction rate of the beating areas maintained in the differentiation medium in a 37° C. heating chamber of an inverted microscope. The cells were then incubated with test compounds in the incubator for 20-30 min, and observed for contraction rate. Dose-dependent effects were determined by cumulatively applying of increasing concentrations of each substrate. Data represent the mean pulsation rate±standard error of the mean measured on 10-20 beating areas.
Differentiated cells were incubated with various concentrations of the drug and the number of beats per minute was counted. The cells were then washed with medium, maintained in differentiation medium for 24 h and observed for the time taken to recover contractility.

In the case of `Nc1ncn([C@H]2C[C@H](O)[C@@H](CO)O2)c(=O)n1` [5-aza-deoxy-cytidine], the “day at which contracting cardiomyocytes were found” value (hES cells of the H7 line) was 18 days and the “expression of cardiac α-MHC” value ([1]; 1 to 10 μM at day 6-8, harvested day 15) was “significantly increased”.

In the case of `Nc1ncn([C@@H]2O[C@H](CO)[C@@H](O)[C@H]2O)c(=O)n1` [5-azacytidine], the “cells forming myotube-like structures, acquiring cardiomyocyte markers and beginning to beat” value [2] is given as 30%.

In the case of `C[S+](C)[O-]` [DMSO, dimethyl sulfoxide], the “toxicity to the cells” value [1] was “toxic”, the “beating areas compared with non-treated cultures” value ([1]; 0.5%, days 0-4) was “fewer beating areas” and the beating cells ([1]; 0.8% or 1%) was “absent”. The “α-MHC expression compared with untreated cultures” value ([1]; DMSO treatment) was “significant reduction”.

In the case of `CC1=C(/C=C/C(C)=C/C=C/C(C)=C/C(=O)O)C(C)(C)CCC1` [RA, all-trans retinoic acid], the “beating cells compared with untreated cultures” value ([1]; days 4-8, 8-15, or 4-15, doses between 10^−9 and 10^−5 μM) is listed as “no increase” and the “effect on cardiac differentiation” value (mouse ES cells) is listed as “accelerates ES cell-derived cardiac differentiation”.

In the case of `CC(C)(C)NCC(O)c1cc(Cl)c(N)c(Cl)c1` (centres unmarked) [clenbuterol], the “beating rate after treatment” value ([3]; cells taken at Day 72, 1-10 nM, from about 72 beats/min, p<0.005) was “about 98 beats/min”.

With `COc1ccc([C@@H]2Sc3ccccc3N(CCN(C)C)C(=O)[C@@H]2OC(C)=O)cc1` [diltiazem] the “beating areas that stopped contraction” value ([3]; 10^−5 M) was 100% and the “inhibition of beating rate” value ([3]; differentiation day 15-21, 20-30 min incubation, increasing concentrations) was “concentration-dependent manner”.

In the case of `CC(C)NCC(O)c1ccc(O)c(O)c1` (centres unmarked) [isoprenaline], the chronotropic effect [3] was “positive chronotropic effects”.

For `CNC[C@H](O)c1cccc(O)c1` [phenylephrine], the chronotropic effect [3] was “positive chronotropic effects”.
